Experimental data reported in article PMC11876601 (Molecular Systems Biology, 2025).
Like-named read-outs stand apart in the source and are kept apart here.

Legend:
Experiment in all cases: cells
[1] = test system: FAMPAC; set-up: ATPlite luminescence viability of PDAC cell lines, 11-dose single-agent curves, 4-parameter fit; conditions: 72 h, read-out: EC50 [nM]
Procedure, shortened: (§1)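 Drug-combination screening used cells plated at 1000 to 5000 per well one day before treatment. Final DMSO was 0.2%. Each plate held untreated negative-control wells and 5 µM staurosporine positive-control wells.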

[2] = test system: Colo-357; set-up: ATPlite luminescence viability of PDAC cell lines, 11-dose single-agent curves, 4-parameter fit; conditions: Homo sapiens, COLO357, 72 h, read-out: EC50 [nM]
Procedure, shortened: as §1

[3] = test system: MiaPaCa-2; set-up: ATPlite luminescence viability of PDAC cell lines, 11-dose single-agent curves, 4-parameter fit; conditions: Homo sapiens, MIA PaCa-2, 72 h, read-out: EC50 [nM]
Procedure, shortened: as §1

[4] = test system: PANC-1; set-up: ATPlite luminescence viability of PDAC cell lines, 11-dose single-agent curves, 4-parameter fit; conditions: Homo sapiens, PANC-1, 72 h, read-out: EC50 [nM]
Procedure, shortened: as §1

[5] = test system: AsPC-1; set-up: ATPlite luminescence viability of PDAC cell lines, 11-dose single-agent curves, 4-parameter fit; conditions: Homo sapiens, ASPC1, 72 h, read-out: EC50 [nM]
Procedure, shortened: as §1

[6] = test system: Suit2-07; set-up: ATPlite luminescence viability of PDAC cell lines, 11-dose single-agent curves, 4-parameter fit; conditions: 72 h, read-out: EC50 [nM]
Procedure, shortened: as §1

[7] = test system: HuP-T4; set-up: ATPlite luminescence viability of PDAC cell lines, 11-dose single-agent curves, 4-parameter fit; conditions: Homo sapiens, HuP-T4, 72 h, read-out: EC50 [nM]
Procedure, shortened: as §1

[8] = test system: BxPC-3; set-up: ATPlite luminescence viability of PDAC cell lines, 11-dose single-agent curves, 4-parameter fit; conditions: Homo sapiens, BXPC-3, 72 h, read-out: EC50 [nM]
Procedure, shortened: as §1

[9] = test system: Capan-1; set-up: ATPlite luminescence viability of PDAC cell lines, 11-dose single-agent curves, 4-parameter fit; conditions: Homo sapiens, CAPAN-1, 72 h, read-out: EC50 [nM]
Procedure, shortened: as §1

[10] = test system: HPDE; set-up: ATPlite luminescence viability of PDAC cell lines, 11-dose single-agent curves, 4-parameter fit; conditions: HPDE, 72 h, read-out: EC50 [nM]
Procedure, shortened: as §1

[11] = test system: PaTu-8988-T; set-up: ATPlite luminescence viability of PDAC cell lines, 11-dose single-agent curves, 4-parameter fit; conditions: Homo sapiens, PaTu 8988t, 72 h, read-out: EC50 [nM]
Procedure, shortened: as §1

[12] = test system: PSN-1; set-up: ATPlite luminescence viability of PDAC cell lines, 11-dose single-agent curves, 4-parameter fit; conditions: Homo sapiens, PSN1, 72 h, read-out: EC50 [nM]
Procedure, shortened: as §1

[13] = test system: Dan-G; set-up: ATPlite luminescence viability of PDAC cell lines, 11-dose single-agent curves, 4-parameter fit; conditions: 72 h, read-out: EC50 [nM]
Procedure, shortened: as §1

[14] = test system: HuP-T4; set-up: Viability of PDAC cell lines, ATPlite luminescence, 11-dose single-agent curve fit; conditions: Homo sapiens, HuP-T4, 72 h, read-out: EC50 [nM]
Procedure, shortened: (§2)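 screening used cells plated at 1000 to 5000 per well one day before treatment. Final DMSO was 0.2%. Each plate held untreated negative-control wells and 5 µM staurosporine positive-control wells.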

[15] = test system: Colo-357; set-up: Viability of PDAC cell lines, ATPlite luminescence, 11-dose single-agent curve fit; conditions: Homo sapiens, COLO357, 72 h, read-out: EC50 [nM]
Procedure, shortened: as §2

[16] = test system: Capan-1; set-up: Viability of PDAC cell lines, ATPlite luminescence, 11-dose single-agent curve fit; conditions: Homo sapiens, CAPAN-1, 72 h, read-out: EC50 [nM]
Procedure, shortened: as §2

[17] = test system: PANC-1; set-up: Viability of PDAC cell lines, ATPlite luminescence, 11-dose single-agent curve fit; conditions: Homo sapiens, PANC-1, 72 h, read-out: EC50 [nM]
Procedure, shortened: as §2

[18] = test system: HPDE; set-up: Viability of PDAC cell lines, ATPlite luminescence, 11-dose single-agent curve fit; conditions: HPDE, 72 h, read-out: EC50 [nM]
Procedure, shortened: as §2

[19] = test system: AsPC-1; set-up: Viability of PDAC cell lines, ATPlite luminescence, 11-dose single-agent curve fit; conditions: Homo sapiens, ASPC1, 72 h, read-out: EC50 [nM]
Procedure, shortened: as §2

[20] = test system: FAMPAC; set-up: Viability of PDAC cell lines, ATPlite luminescence, 11-dose single-agent curve fit; conditions: 72 h, read-out: EC50 [nM]
Procedure, shortened: as §2

[21] = test system: PSN-1; set-up: Viability of PDAC cell lines, ATPlite luminescence, 11-dose single-agent curve fit; conditions: Homo sapiens, PSN1, 72 h, read-out: EC50 [nM]
Procedure, shortened: as §2

[22] = test system: MiaPaCa-2; set-up: Viability of PDAC cell lines, ATPlite luminescence, 11-dose single-agent curve fit; conditions: Homo sapiens, MIA PaCa-2, 72 h, read-out: EC50 [nM]
Procedure, shortened: as §2

[23] = test system: Suit2-07; set-up: Viability of PDAC cell lines, ATPlite luminescence, 11-dose single-agent curve fit; conditions: 72 h, read-out: EC50 [nM]
Procedure, shortened: as §2

[24] = test system: Dan-G; set-up: Viability of PDAC cell lines, ATPlite luminescence, 11-dose single-agent curve fit; conditions: 72 h, read-out: EC50 [nM]
Procedure, shortened: as §2

EC50 [2] | EC50 [3] | EC50 [4] | EC50 [5] | EC50 [8] | SMILES | EC50 [1] | EC50 [6] | EC50 [7] | EC50 [9] | EC50 [10] | EC50 [11] | EC50 [12] | EC50 [13] | other results
5090 nM | > 10000 nM | > 10000 nM | 5990 nM | 2170 nM | COc1cc(Nc2c(C#N)cnc3cc(OCCCN4CCN(C)CC4)c(OC)cc23)c(Cl)cc1Cl [Bosutinib] | 3030 nM | 2330 nM | > 10000 nM | 6130 nM | 2140 nM | > 10000 nM | 4490 nM | 2910 nM | 
4490 nM | 3040 nM | 3070 nM | 2570 nM | 1960 nM | CC1(C)CC=C(c2nc(C3CC(C)(C)OC(C)(C)C3)ccc2NC(=O)c2nc(C#N)c[nH]2)CC1 [Edicotinib] | 2850 nM | 2380 nM |  | 3970 nM | 2070 nM | 2070 nM | 2160 nM | 3250 nM | EC50 [14]: 1370 nM
5250 nM | 3630 nM | 10000 nM | 6090 nM | 4970 nM | Cc1ccc(C(=O)OCc2ccc([C@@H](CN)C(=O)Nc3ccc4cnccc4c3)cc2)c(C)c1 [Netarsudil] | 5930 nM | > 10000 nM | 5200 nM | > 10000 nM | > 10000 nM | 4320 nM | > 10000 nM | 1590 nM | 
 | 4480 nM | > 10000 nM | 2150 nM | 7410 nM | CNC(=O)c1cc(Oc2ccc(NC(=O)Nc3ccc(Cl)c(C(F)(F)F)c3)c(F)c2)ccn1 [Regorafenib] | > 10000 nM | > 10000 nM |  | 6350 nM | 9210 nM | > 10000 nM | 1430 nM | 4480 nM | EC50 [15]: 7480 nM; EC50 [14]: > 10000 nM
5080 nM | 2190 nM | 8300 nM | > 10000 nM | 3600 nM | CC1(COc2ccc3c(c2)ncn3-c2ccc3cccc(N4CCC(N)CC4)c3n2)COC1 [Crenolanib] | 3340 nM | 4860 nM | > 10000 nM |  | 3500 nM | 5450 nM | 5250 nM | 5940 nM | EC50 [16]: 3710 nM
10300 nM | 10100 nM |  | 7780 nM | 7970 nM | COc1cc2c(Oc3ccc4[nH]c(C)cc4c3F)ncnc2cc1OCCCN1CCCC1 [Cediranib] | > 10000 nM | > 10000 nM | 8450 nM |  |  | 6380 nM | > 10000 nM | 6330 nM | EC50 [17]: 7310 nM; EC50 [16]: 8290 nM; EC50 [18]: 4910 nM
1410 nM | 946 nM |  |  | 4790 nM | COc1cc(Nc2ncc(F)c(Nc3ccc4c(n3)N(COP(=O)(O)O)C(=O)C(C)(C)O4)n2)cc(OC)c1OC [Fostamatinib] | > 10000 nM | 1360 nM | 3770 nM | 2290 nM | > 10000 nM | 1190 nM | 2020 nM | 1010 nM | EC50 [17]: 658 nM; EC50 [19]: > 10000 nM
4350 nM | 1680 nM | 4250 nM | > 10000 nM |  | CN1CCN(c2ccc3nc(-c4c(N)c5c(F)cccc5[nH]c4=O)[nH]c3c2)CC1 [Dovitinib] | 2170 nM | 863 nM | 3570 nM | 4250 nM | 4540 nM | 3150 nM | 2720 nM | 3430 nM | 
2350 nM | 1720 nM | 1960 nM | 3160 nM | 1520 nM | COc1cc2c(Oc3ccc4[nH]c(C)cc4c3F)ccnc2cc1OCC1(N)CC1 [Anlotinib] | 1580 nM | 1270 nM |  | 2440 nM | 6100 nM | 1520 nM | 1920 nM | 1850 nM | EC50 [14]: > 10000 nM
27.1 nM | 446 nM | 1570 nM | 873 nM | 245 nM | Cc1nc(-c2cn3c(n2)-c2ccc(-c4cnn(C(C)(C)C(N)=O)c4)cc2OCC3)n(C(C)C)n1 [Taselisib] |  | 141 nM |  | 2920 nM | 826 nM | 459 nM |  | 37.1 nM | EC50 [20]: > 10000 nM; EC50 [14]: 19.8 nM; EC50 [21]: 7930 nM
 |  |  |  | > 10000 nM | CN(C)C[C@@H]1CCn2cc(c3ccccc32)C2=C(C(=O)NC2=O)c2cn(c3ccccc23)CCO1 [Ruboxistaurin] | > 10000 nM |  | > 10000 nM |  | > 10000 nM | > 10000 nM | > 10000 nM |  | EC50 [15]: 5.38 nM; EC50 [22]: 6440 nM; EC50 [17]: 1620 nM; EC50 [19]: 8110 nM; EC50 [23]: 3050 nM; EC50 [16]: 8680 nM; EC50 [24]: 5180 nM
7390 nM | 308 nM | 1860 nM | 496 nM | 1420 nM | CC(C)NC(=O)[C@H]1CC[C@@H](n2/c(=N/C(=O)c3ccc(F)cc3)[nH]c3ccc(CN4CCC(C(C)(C)O)CC4)cc32)CC1 [Belizatinib] |  | 599 nM | > 10000 nM |  | 1270 nM | 580 nM | 1340 nM | 4630 nM | EC50 [20]: 3220 nM; EC50 [16]: 8120 nM
4740 nM | 4.67 nM |  |  | 78.9 nM | Cc1nc(Nc2ncc(C(=O)Nc3c(C)cccc3Cl)s2)cc(N2CCN(CCO)CC2)n1 [Dasatinib] | 48.5 nM | 2600 nM | 139 nM | 704 nM | 580 nM | 16.6 nM | 37.1 nM | 8640 nM | EC50 [17]: 446 nM; EC50 [19]: > 10000 nM
403 nM | 572 nM | 703 nM | 1030 nM |  | Nc1cc(C(F)(F)F)c(-c2cc(N3CCOCC3)nc(N3CCOCC3)n2)cn1 [Buparlisib] | 752 nM | 479 nM | 1300 nM | 663 nM | 1130 nM | 724 nM | 638 nM | 493 nM | 
 |  |  |  |  | CO[C@@H]1[C@H](N(C)C(=O)c2ccccc2)C[C@H]2O[C@]1(C)n1c3ccccc3c3c4c(c5c6ccccc6n2c5c31)C(=O)NC4 [Midostaurin] |  |  | 692 nM |  |  | 385 nM |  |  | EC50 [18]: 221 nM
